# Measurements published in patent US20250122155A1, “NOVEL INDOLE DERIVATIVE, PHARMACEUTICAL COMPOSITION COMPRISING SAME, AND USE THEREOF” (MITOIMMUNE THERAPEUTICS INC., priority 2021, published 2025).
# Tests used:
# ARPE-19 cells = assay: Cell death protective effect in retinal epithelial cells against Erastin and RSL3 (LDH); format: cell-based, human; conditions: 24 hours
# Description: In order to identify the protective effect on retinal epithelial cells, ARPE-19 cells were divided into 96-well plates by 1×10^4 and cultured for 18 to 24 hours. The compounds of Examples were diluted to final concentrations of 0.03 and 0.3 μM, treated in each well, and incubated for 20 minutes. Erastin, and RSL3 were treated to have final concentrations of 10 μM, and 0.3 μM, respectively, and cultured for 24 hours. In order to identify the protective effect of each compound, the degree of LDH extracellular secretion was measured using cytotoxicity LDH assay kit [Dojindo; CK12]. Briefly, at the time when the treatment of the cells with Erastin, and RSL3 for 24 hours is completed, the supernatants containing the cells are taken by 70 μL and transferred to a new 96-well plate. The assay buffer included in the kit is added in an amount of 70 μL/well (the same amount as the sample) thereto, and then the plate is wrapped with a foil and the reaction is performed at room temperature for 15 minutes.
# NRK-49F cells = assay: Cell death protective effect in renal fibroblasts against Erastin, glutamate and RSL3 (LDH); format: cell-based, rat; conditions: 24 hours
# Description: In order to identify the protective effect on renal fibroblasts, NRK-49F cells were divided into 96-well plates by 1×10^4 and cultured for 18 to 24 hours. The compounds of Examples were diluted to final concentrations of 0.1 and 1 μM, treated in each well, and incubated for 15 to 20 minutes. Erastin, glutamate, and RSL3 were treated to have final concentrations of 3 μM, 75 mM, and 3 μM, respectively, and cultured for 24 hours. In order to identify the protective effect of each compound, the degree of LDH extracellular secretion was measured using cytotoxicity LDH assay kit [Dojindo; CK12]. Briefly, at the time when the treatment of the cells with Erastin, glutamate, and RSL3 for 24 hours is completed, the supernatants containing the cells are taken by 70 μl and transferred to a new 96-well plate. The assay buffer included in the kit is added in an amount of 70 μL/well (the same amount as the sample) thereto, and then the plate is wrapped with a foil and the reaction is performed at room temperature for 15 minutes.
# H9C2 cells = assay: Protective effect on heart cells against t-BHP (LDH release); format: cell-based; conditions: H9C2, t-BHP 400 μM, 2 hours, read-out: EC50 (μM), Cell Protection Effect against t-BHP in Heart Cells
# Summary of the method: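 H9C2 cells (1.5×10^4/well, cultured 24 h) were pretreated 15–20 min with compound at 0.01–30 μM final, then exposed 2 h to 400 μM t-BHP. LDH in supernatant was measured colorimetrically at 490 nm after 30 min room-temperature reaction; EC50 derived from protection.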
# PC-12 cells = assay: Cell death protective effect in adrenal cells against Erastin, glutamate and RSL3 (LDH); format: cell-based, rat; conditions: 24 hours
# Description: In order to identify the protective effect on adrenal cells, PC-12 cells were divided into 96-well plates by 1×10^4 and cultured for 18 to 24 hours. The compounds of Examples were diluted to final concentrations of 0.1 and 1.0 μM in Erastin, 0.01 and 0.1 in glutamate, and 0.3 and 3.0 μM in RSL3, treated in each well, and incubated for 15 to 20 minutes. Erastin, glutamate, and RSL3 were treated to have final concentrations of 1 μM, 10 mM, and 0.3 μM, respectively, and cultured for 24 hours. In order to identify the protective effect of each compound, the degree of LDH extracellular secretion was measured using cytotoxicity LDH assay kit [Dojindo; CK12]. Briefly, at the time when the treatment of the cells with Erastin, glutamate, and RSL3 for 24 hours is completed, the supernatants containing the cells are taken by 70 μL and transferred to a new 96-well plate. The assay buffer included in the kit is added in an amount of 70 μL/well (the same amount as the sample) thereto, and then the plate is wrapped with a foil and the reaction is performed at room temperature for 15 minutes. After observing the changed color of the sample, the stop solution was added in an amount of 35 µL/well thereto, and then the 0 inhibition value was calculated by measuring the absorbance value at a wavelength of 490 nm using an iD3 spectrophotometer.
# MLE-12 cells = assay: Cell death protective effect in lung epithelial cells against RSL3 (LDH); format: cell-based, rat; conditions: MLE-12, RSL3 1.0 μM, 24 hours
# Description: In order to identify the protective effect on lung epithelial cells, MLE-12 cells were divided into 96-well plates by 5×10^3 and cultured for 18 to 24 hours. The compounds of Examples were diluted to final concentrations of 0.1 and 1.0 μM, treated in each well, and incubated for 20 minutes. RSL3 was treated to have final concentrations of 1.0 μM, respectively, and cultured for 24 hours. In order to identify the protective effect of each compound, the degree of LDH extracellular secretion was measured using cytotoxicity LDH assay kit [Dojindo; CK12]. Briefly, at the time when the treatment of the cells with RSL3 for 24 hours is completed, the supernatants containing the cells are taken by 70 μL and transferred to a new 96-well plate. The assay buffer included in the kit is added in an amount of 70 μL/well (the same amount as the sample) thereto, and then the plate is wrapped with a foil and the reaction is performed at room temperature for 15 minutes.
# [1] = ARPE-19, Erastin 10 μM, compound 0.03 μM
# [2] = ARPE-19, Erastin 10 μM, compound 0.3 μM
# [3] = ARPE-19, RSL3 0.3 μM, compound 0.03 μM
# [4] = ARPE-19, RSL3 0.3 μM, compound 0.3 μM
# [5] = Glutamate 75 mM, compound 0.1 μM
# [6] = Glutamate 75 mM, compound 1.0 μM
# [7] = PC-12, Erastin 1 μM, compound 0.1 μM
# [8] = PC-12, Erastin 1 μM, compound 1.0 μM
# [9] = PC-12, Glutamate 10 mM, compound 0.01 μM
# [10] = PC-12, Glutamate 10 mM, compound 0.1 μM
# [11] = PC-12, RSL3 0.3 μM, compound 0.3 μM
# [12] = PC-12, RSL3 0.3 μM, compound 3.0 μM
SMILES,inhibition (%) (ARPE-19 cells; [1]),inhibition (%) (ARPE-19 cells; [2]),inhibition (%) (ARPE-19 cells; [3]),inhibition (%) (ARPE-19 cells; [4]),"inhibition (%) (NRK-49F cells; Erastin 3 μM, compound 0.1 μM)","inhibition (%) (NRK-49F cells; Erastin 3 μM, compound 1.0 μM)",inhibition (%) (NRK-49F cells; [5]),inhibition (%) (NRK-49F cells; [6]),"inhibition (%) (NRK-49F cells; RSL3 3 μM, compound 0.1 μM)","inhibition (%) (NRK-49F cells; RSL3 3 μM, compound 1.0 μM)",EC50 (H9C2 cells) [µM],inhibition (%) (PC-12 cells; [7]),inhibition (%) (PC-12 cells; [8]),inhibition (%) (PC-12 cells; [9]),inhibition (%) (PC-12 cells; [10]),inhibition (%) (PC-12 cells; [11]),inhibition (%) (PC-12 cells; [12]),inhibition (%) (MLE-12 cells; compound 0.1 μM),inhibition (%) (MLE-12 cells; compound 1.0 μM)
"COCCOCc1cc(NCC2CCOCC2)c2[nH]c(-c3ccccc3)cc2c1 [Example 4, 5-2(methoxyethoxymethyl)-2-phenyl-N-(tetrahydropyran-4-ylmethyl)-1H-indol-7-amine]",100,100,100,100,99,99,99,100,98,99,≤ 0.3,100,100,53,96,100,100,90,91
"CCOCCOCc1cc(NC2CCCC2)c2[nH]c(-c3ccccc3)cc2c1 [Example 36, N-cyclopentyl-5-(2-ethoxyethoxymethyl)-2-phenyl-1H-indol-7-amine]",98,100,100,100,99,99,100,100,98,99,≤ 0.3,100,100,61,95,100,100,89,94
"COCCOCc1cc(NC2CCOCC2)c2[nH]cc(C)c2c1 [Example 50, 5-(2-methoxyethoxymethyl)-3-methyl-N-tetrahydropyran-4-yl-1H-indol-7-amine]",19,86,4,45,3,99,4,73,16,18,> 1,41,68,16,25,0,100,0,56
"COCCOCCOCc1cc(NC2CCCC2)c2[nH]c(-c3ccccc3)cc2c1 [Example 39, N-cyclopentyl-5-[2-(2-methoxyethoxy)ethoxymethyl]-2-phenyl-1H-indol-7-amine]",100,100,100,100,99,98,100,100,98,99,≤ 0.3,100,100,52,97,100,100,89,89
"COCCOCc1cc(NCc2ccncc2)c2[nH]c(-c3ccccc3)cc2c1 [Example 45, 5-(2-methoxyethoxymethyl)-2-phenyl-N-(4-pyridylmethyl)-1H-indol-7-amine]",100,100,100,100,99,98,100,98,99,98,≤ 0.3,100,100,57,100,100,100,98,100
"CCOC(=O)c1ccc(NC2CCCCC2)c(N)c1 [Ferrostatin-1, reference compound]",86,100,61,100,99,98,95,100,94,99,,100,100,35,98,100,100,100,100
"COCCOCc1cc(NC2CCOCC2)c2[nH]c(-c3ccccc3)cc2c1 [Example 1, 5-(2-methoxyethoxymethyl)-2-phenyl-N-tetrahydropyran-4-yl-1H-indol-7-amine]",100,100,95,100,99,99,100,100,99,99,≤ 0.3,100,100,53,98,100,100,100,100
